Data published in ChEMBL document CHEMBL1153803, “Parallel synthesis of chiral pentaamines and pyrrolidine containing bis-heterocyclic libraries. Multiple scaffolds with multiple building blocks: a double diversity for the identification of new antitubercular compounds” (Bioorg Med Chem Lett, 2009).
≈ marks a conversion by molar mass, not a printed value.

Key:
[1] = test system: Mycobacterium tuberculosis; test: Antimicrobial activity against Mycobacterium tuberculosis H37Rv ATCC 27294 by microplate Almar blue assay; assay type: functional
Vero = test: Cytotoxicity against african green monkey Vero cells at after 72 hrs by MTT assay; assay type: cell-based, Chlorocebus sabaeus
[2] = test system: Mycobacterium tuberculosis; test: Antimicrobial activity against Mycobacterium tuberculosis H37Rv ATCC 27294 at 6.25 ug/mL by broth microdilution assay; assay type: functional
[3] = Selective index, the ratio of IC50 in the african green monkey Vero cells to the MIC to Mycobacterium tuberculosis H37Rv ATCC 27294; assay type: functional
[4] = Mycobacterium tuberculosis, H37Rv ATCC 27294, read-out: MIC
[5] = Chlorocebus sabaeus, Vero, 72 h, read-out: IC50

Compound: NC[C@H](Cc1ccccc1)NC[C@@H]1CCCN1C[C@H](Cc1ccccc1)NC[C@H](Cc1ccccc1)NCCC12CC3CC(CC(C3)C1)C2
- MIC [1, 4]: 3.13 µg/mL (≈ 4.73 µM)
- IC50 (Vero; [5]): 1.1 µg/mL (≈ 1.66 µM)

Compound: NC[C@H](Cc1ccc2ccccc2c1)NC[C@@H]1CCCN1C[C@H](Cc1ccccc1)NC[C@H](Cc1ccccc1)NCCc1ccccc1
- MIC [1, 4]: 6.25 µg/mL (≈ 9.56 µM)
- IC50 (Vero; [5]): 4.23 µg/mL (≈ 6.47 µM)

Compound: CC1CCC(CN2CCN([C@@H](Cc3ccccc3)CN3CCCC3CN3CCNC[C@@H]3Cc3ccccc3)C[C@@H]2Cc2ccccc2)CC1 (stereo partly drawn)
- inhibition at 6.25 µg/mL [2]: 99%
- MIC [1]: 3.9 µg/mL (≈ 5.89 µM)
- MIC [1, 4]: 6.25 µg/mL (≈ 9.44 µM)
- IC50 (Vero; [5]): 1.39 µg/mL (≈ 2.1 µM)
- IC50 (Vero; vero): 0.82 µg/mL (≈ 1.24 µM)
- Selectivity Index [3]: 0.21

Compound: NC[C@H](Cc1ccccc1)NC[C@@H]1CCCN1C[C@H](Cc1ccccc1)NC[C@H](Cc1ccccc1)NCC12CC3CC(CC(C3)C1)C2
- MIC [1, 4]: 6.25 µg/mL (≈ 9.65 µM)

Compound: NC[C@H](Cc1ccccc1)NC[C@@H]1CCCN1C[C@H](Cc1ccccc1)NC[C@H](Cc1ccccc1)NCC1CCCC1
- MIC [1, 4]: 6.25 µg/mL (≈ 10.7 µM)

Compound: NC[C@H](Cc1ccccc1)NC[C@@H]1CCCN1C[C@H](Cc1ccccc1)NC[C@H](Cc1ccccc1)NCCCC1CCCC1
- MIC [1, 4]: 6.25 µg/mL (≈ 10.2 µM)

Compound: NC[C@H](Cc1ccccc1)NC[C@@H]1CCCN1C[C@H](Cc1ccccc1)NC[C@H](Cc1ccccc1)NCCC1CCCCC1
- MIC [1, 4]: 6.25 µg/mL (≈ 10.2 µM)
- IC50 (Vero; [5]): 1.05 µg/mL (≈ 1.72 µM)

Compound: CCCCCCCN[C@H](CN[C@@H](Cc1ccccc1)CN1CCC[C@H]1CN[C@H](CN)Cc1ccccc1)Cc1ccccc1
- MIC [1, 4]: > 6.25 µg/mL

Compound: NC[C@H](Cc1ccccc1)NC[C@@H]1CCCN1C[C@H](Cc1ccccc1)NC[C@H](Cc1ccccc1)NCCc1ccc(-c2ccccc2)cc1
- MIC [1, 4]: > 6.25 µg/mL

Compound: c1ccc(C[C@H]2CNCCN2C[C@@H]2CCCN2C[C@H](Cc2ccccc2)N2CCN(CC34CC5CC(CC(C5)C3)C4)[C@@H](Cc3ccccc3)C2)cc1
- inhibition at 6.25 µg/mL [2]: 99%
- MIC [1, 4]: 3.9 µg/mL (≈ 5.57 µM)

Compound: S=C1NC[C@H](Cc2ccccc2)N1C[C@@H]1CCCN1C[C@H](Cc1ccccc1)N1C[C@H](Cc2ccccc2)N(CC23CC4CC(CC(C4)C2)C3)C1=S
- inhibition at 6.25 µg/mL [2]: 98%
- MIC [1, 4]: 6.25 µg/mL (≈ 8.54 µM)

Compound: N=C1NC[C@H](Cc2ccccc2)N1C[C@@H]1CCCN1C[C@H](Cc1ccccc1)N1C[C@H](Cc2ccccc2)N(CC23CC4CC(CC(C4)C2)C3)C1=N
- inhibition at 6.25 µg/mL [2]: 91%
- MIC [1, 4]: 3.9 µg/mL (≈ 5.59 µM)

Compound: N=C1NC[C@H](Cc2ccccc2)N1CC1CCCN1C[C@H](Cc1ccccc1)N1C[C@H](Cc2ccccc2)N(CC2CCCCCC2)C1=N (stereo partly drawn)
- inhibition at 6.25 µg/mL [2]: 92%
- MIC [1, 4]: 3.9 µg/mL (≈ 5.91 µM)
- IC50 (Vero; [5]): 39.5 µg/mL (≈ 59.8 µM)
- Selectivity Index [3]: 10.1

Compound: N=C1NC[C@H](Cc2ccccc2)N1CC1CCCN1C[C@H](Cc1ccccc1)N1C[C@H](Cc2ccccc2)N(CCc2ccc(Cl)c(Cl)c2)C1=N (stereo partly drawn)
- inhibition at 6.25 µg/mL [2]: 95%
- MIC [1, 4]: 3.9 µg/mL (≈ 5.4 µM)
- IC50 (Vero; [5]): 24.5 µg/mL (≈ 33.9 µM)
- Selectivity Index [3]: 6.3

Compound: CCC(C)CN1C(=N)N([C@@H](Cc2ccccc2)CN2CCCC2CN2C(=N)NC[C@@H]2Cc2ccccc2)C[C@@H]1Cc1ccccc1 (stereo partly drawn)
- inhibition at 6.25 µg/mL [2]: 90%
- MIC [1, 4]: 7.8 µg/mL (≈ 12.6 µM)
- IC50 (Vero; [5]): 36.8 µg/mL (≈ 59.3 µM)
- Selectivity Index [3]: 4.7

Compound: N=C1NC[C@H](Cc2ccccc2)N1CC1CCCN1C[C@H](Cc1ccccc1)N1C[C@H](Cc2ccccc2)N(CC2CCCC2)C1=N (stereo partly drawn)
- inhibition at 6.25 µg/mL [2]: 93%
- MIC [1, 4]: 7.8 µg/mL (≈ 12.3 µM)
- IC50 (Vero; [5]): 33.5 µg/mL (≈ 53.1 µM)
- Selectivity Index [3]: 4.3

Compound: CC(C)CCCN1C(=N)N([C@@H](Cc2ccccc2)CN2CCCC2CN2C(=N)NC[C@@H]2Cc2ccccc2)C[C@@H]1Cc1ccccc1 (stereo partly drawn)
- inhibition at 6.25 µg/mL [2]: 93%
- MIC [1, 4]: 7.8 µg/mL (≈ 12.3 µM)
- IC50 (Vero; [5]): 31 µg/mL (≈ 48.9 µM)
- Selectivity Index [3]: 3.97

Compound: N=C1NC[C@H](Cc2ccccc2)N1CC1CCCN1C[C@H](Cc1ccccc1)N1C[C@H](Cc2ccccc2)N(CCC23CC4CC(CC(C4)C2)C3)C1=N (stereo partly drawn)
- inhibition at 6.25 µg/mL [2]: 91%
- MIC [1, 4]: 3.9 µg/mL (≈ 5.48 µM)
- IC50 (Vero; [5]): 14.5 µg/mL (≈ 20.3 µM)
- Selectivity Index [3]: 3.7

Compound: N=C1NC[C@H](Cc2ccccc2)N1CC1CCCN1C[C@H](Cc1ccccc1)N1C[C@H](Cc2ccccc2)N(CCCCC2CCCCC2)C1=N (stereo partly drawn)
- inhibition at 6.25 µg/mL [2]: 91%
- MIC [1, 4]: 3.9 µg/mL (≈ 5.67 µM)
- IC50 (Vero; [5]): 14.3 µg/mL (≈ 20.8 µM)
- Selectivity Index [3]: 3.7

Compound: N=C1NC[C@H](Cc2ccccc2)N1CC1CCCN1C[C@H](Cc1ccccc1)N1C[C@H](Cc2ccccc2)N(CCC2CCCCC2)C1=N (stereo partly drawn)
- inhibition at 6.25 µg/mL [2]: 94%
- MIC [1, 4]: 3.9 µg/mL (≈ 5.91 µM)
- IC50 (Vero; [5]): 13.9 µg/mL (≈ 21.1 µM)
- Selectivity Index [3]: 3.8

Compound: N=C1NC[C@H](Cc2ccccc2)N1CC1CCCN1C[C@H](Cc1ccccc1)N1C[C@H](Cc2ccccc2)N(CCC2CC3CCC2C3)C1=N (stereo partly drawn)
- inhibition at 6.25 µg/mL [2]: 94%
- MIC [1, 4]: 7.8 µg/mL (≈ 11.6 µM)
- IC50 (Vero; [5]): 15.5 µg/mL (≈ 23 µM)
- Selectivity Index [3]: 1.98

Compound: CC(C)(C)C1CCC(CN2C(=N)N([C@@H](Cc3ccccc3)CN3CCCC3CN3C(=N)NC[C@@H]3Cc3ccccc3)C[C@@H]2Cc2ccccc2)CC1 (stereo partly drawn)
- inhibition at 6.25 µg/mL [2]: 94%
- MIC [1, 4]: 7.8 µg/mL (≈ 11.1 µM)
- IC50 (Vero; [5]): 15.2 µg/mL (≈ 21.7 µM)
- Selectivity Index [3]: 1.95

Compound: S=C1NC[C@H](Cc2ccccc2)N1CC1CCCN1C[C@H](Cc1ccccc1)N1C[C@H](Cc2ccccc2)N(CC2CCCCC2)C1=S (stereo partly drawn)
- inhibition at 6.25 µg/mL [2]: 97%
- MIC [1, 4]: 3.9 µg/mL (≈ 5.73 µM)
- IC50 (Vero; [5]): 8.47 µg/mL (≈ 12.5 µM)
- Selectivity Index [3]: 2.2

Compound: CC(C)[C@H]1CNC(=S)N1CC1CCCN1C[C@H](Cc1ccccc1)N1C[C@H](Cc2ccccc2)N(CCc2ccccc2)C1=S (stereo partly drawn)
- inhibition at 6.25 µg/mL [2]: 90%

Compound: c1ccc(CCN2CCN([C@@H](CC3CCCCC3)CN3CCCC3CN3CCNC[C@@H]3Cc3ccccc3)C[C@@H]2Cc2ccccc2)cc1 (stereo partly drawn)
- inhibition at 6.25 µg/mL [2]: 100%
- MIC [1, 4]: 2 µg/mL (≈ 3.02 µM)
- IC50 (Vero; [5]): 0.99 µg/mL (≈ 1.5 µM)
- Selectivity Index [3]: 0.5

Compound: c1ccc(C[C@H]2CNCCN2CC2CCCN2C[C@H](Cc2ccccc2)N2CCN(CCCCC3CCCCC3)[C@@H](Cc3ccccc3)C2)cc1 (stereo partly drawn)
- inhibition at 6.25 µg/mL [2]: 99%
- MIC [1, 4]: 2 µg/mL (≈ 2.9 µM)
- IC50 (Vero; [5]): 1 µg/mL (≈ 1.45 µM)
- Selectivity Index [3]: 0.5

Compound: c1ccc(C[C@H]2CNCCN2CC2CCCN2C[C@H](Cc2ccccc2)N2CCN(CC34CC5CC(CC(C5)C3)C4)[C@@H](Cc3ccccc3)C2)cc1 (stereo partly drawn)
- inhibition at 6.25 µg/mL [2]: 97%
- MIC [1, 4]: 2 µg/mL (≈ 2.86 µM)
- IC50 (Vero; [5]): 0.97 µg/mL (≈ 1.39 µM)
- Selectivity Index [3]: 0.49

Compound: c1ccc(C[C@H]2CNCCN2CC2CCCN2C[C@H](Cc2ccccc2)N2CCN(CCCC3CCCCC3)[C@@H](Cc3ccccc3)C2)cc1 (stereo partly drawn)
- inhibition at 6.25 µg/mL [2]: 99%
- MIC [1, 4]: 2 µg/mL (≈ 2.96 µM)
- IC50 (Vero; [5]): 0.94 µg/mL (≈ 1.39 µM)
- Selectivity Index [3]: 0.47

Compound: CC(C)CCCN1CCN([C@@H](Cc2ccccc2)CN2CCCC2CN2CCNC[C@@H]2Cc2ccccc2)C[C@@H]1Cc1ccccc1 (stereo partly drawn)
- inhibition at 6.25 µg/mL [2]: 99%
- MIC [1, 4]: 2 µg/mL (≈ 3.14 µM)
- IC50 (Vero; [5]): 0.89 µg/mL (≈ 1.4 µM)
- Selectivity Index [3]: 0.45

Compound: NC[C@H](Cc1ccccc1)NC[C@@H]1CCCN1C[C@H](Cc1ccccc1)NC[C@H](Cc1ccccc1)NCCCC1CCCCC1
- inhibition at 6.25 µg/mL [2]: 99%
- MIC [1, 4]: 3.13 µg/mL (≈ 5.02 µM)

Compound: CCC(C)CCN1C(=N)N([C@@H](Cc2ccccc2)CN2CCCC2CN2C(=N)NC[C@@H]2Cc2ccccc2)C[C@@H]1Cc1ccccc1 (stereo partly drawn)
- inhibition at 6.25 µg/mL [2]: 91%
- MIC [1, 4]: 7.8 µg/mL (≈ 12.3 µM)
- IC50 (Vero; [5]): 32.3 µg/mL (≈ 50.9 µM)
- Selectivity Index [3]: 4.1

Compound: CC(C)(C)C1CCC(CN2CCN([C@@H](Cc3ccccc3)CN3CCCC3CN3CCNC[C@@H]3Cc3ccccc3)C[C@@H]2Cc2ccccc2)CC1 (stereo partly drawn)
- inhibition at 6.25 µg/mL [2]: 97%
- MIC [1, 4]: 2 µg/mL (≈ 2.84 µM)
- IC50 (Vero; [5]): 1.15 µg/mL (≈ 1.63 µM)
- Selectivity Index [3]: 0.58

Compound: OCC(CN1CCN([C@@H](Cc2ccccc2)CN2CCCC2CN2CCNC[C@@H]2Cc2ccccc2)C[C@@H]1Cc1ccccc1)c1ccccc1 (stereo partly drawn)
- inhibition at 6.25 µg/mL [2]: 99%
- MIC [1, 4]: 20 µg/mL (≈ 29.2 µM)
- IC50 (Vero; [5]): 1.08 µg/mL (≈ 1.57 µM)

Compound: NC[C@H](Cc1ccccc1)NC[C@@H]1CCCN1C[C@H](Cc1ccccc1)NC[C@H](Cc1ccccc1)NCCC1CC2CCC1C2 (stereo partly drawn)
- MIC [1, 4]: 3.13 µg/mL (≈ 5.03 µM)
- IC50 (Vero; [5]): 1.03 µg/mL (≈ 1.66 µM)
